Each block holds one molecule with its values, some of them ahead of it.
Legend:
[1] = cited from earlier work
[2] = Fenofibric acid polymorph slurry study (form by XRPD or Raman); type: physicochemical; conditions: for relative thermodynamic stability of the enantiotropically related forms: Form A versus Form B, by temperature
Description: Approximately 30-45 mg in combination of Form B and Form A are weighed to an 8-mL vial outfitted with a stir bar. Solvent (water, toluene, and 1:1 water/IPA, DCM or MeCN) in the amount of 1 mL is added. The samples are sealed with a Teflon cap and parafilm and then placed on a magnetic stirrer at room temperature or 45° C. An aliquot is then sampled after 7 days and 21 days for determination of form by XRPD or Raman (Table 7).

[3] = Solubility in water; type: physicochemical; conditions: noted in lyophilization example
[4] = Grinding study of Form B in a ball mill (XRPD); type: physicochemical; conditions: ground for 30 seconds using a ball mill
Description: Approximately 50 mg of Form B is ground for 30 seconds using a ball mill and the resulting material is analyzed by XRPD.

solubility in water [3]: limited solubility | Form, 7 Days (XRPD/Raman) ([2]; slurry in DCM 1 mL, 45 °C): A + B | Form, 21 Days (XRPD/Raman) ([2]; slurry in DCM 1 mL, 45 °C): A + B | Form, 21 Days (XRPD/Raman) ([2]; slurry in Water 1 mL, RT): Diffuse
SMILES: CC(C)(Oc1ccc(C(=O)c2ccc(Cl)cc2)cc1)C(=O)O [Form A, 2-[4-(4-chlorobenzoyl)phenoxy]-2-methyl-propanoic acid]
relative thermodynamic stability of the enantiotropically related forms [2]: more stable at elevated temperatures (e.g., above about 45° C.)

form observed after grinding (XRPD) [4]: Form A is observed | Form, 7 Days (XRPD/Raman) ([2]; slurry in DCM 1 mL, 45 °C): A + B | Form, 21 Days (XRPD/Raman) ([2]; slurry in DCM 1 mL, 45 °C): A + B
SMILES: CC(C)(Oc1ccc(C(=O)c2ccc(Cl)cc2)cc1)C(=O)O [Form B, 2-[4-(4-chlorobenzoyl)phenoxy]-2-methyl-propanoic acid]
relative thermodynamic stability of the enantiotropically related forms [2]: more thermodynamically stable at lower temperatures (e.g., room temperature)

The next lines start with the molecule.

SMILES: CC(C)OC(=O)C(C)(C)Oc1ccc(C(=O)c2ccc(Cl)cc2)cc1 [Fenofibrate, 2-[4-(4-chlorobenzoyl)phenoxy]-2-methyl-propanoic acid, 1-methylethyl ester]
effect on high-density lipoprotein (HDL) and apoproteins apoAI and apoAII ([1]; treatment with fenofibrate): results in increases

SMILES: CC(C)(Oc1ccc(C(=O)c2ccc(Cl)cc2)cc1)C(=O)O [Fenofibric acid, 2-[4-(4-chlorobenzoyl)phenoxy]-2-methyl-propanoic acid]
effect on total cholesterol, LDL cholesterol, apolipoprotein B, total triglycerides and triglyceride rich lipoprotein (VLDL) ([1]; treated patients): produces reductions

SMILES: CC(C)(Oc1ccc(C(=O)c2ccc(Cl)cc2)cc1)C(=O)O [Form A + B, 2-[4-(4-chlorobenzoyl)phenoxy]-2-methyl-propanoic acid]
Form, 21 Days (XRPD/Raman) ([2]; slurry in Toluene 1 mL, 45 °C): A + B | Form, 7 Days (XRPD/Raman) ([2]; slurry in Water 1 mL, RT): A + B
